Earlier results as cited in patent US20060183897A1, “Biaryl substituted triazoles as sodium channel blockers” (priority 2003, published 2006).

What was measured:
[1] = tested on: rat models of peripheral nerve injury; settings: intravenous application; concentrations that do not affect general behavior and motor function
[2] = tested on: patients with peripheral nerve injury; settings: continuous infusion; placebo-controlled
[3] = tested on: postherpetic neuralgia (PHN); settings: intravenous

CCN(CC)CC(=O)Nc1c(C)cccc1C [lidocaine]
ectopic activity in the injured nerve [1]: suppress the ectopic activity | tactile allodynia [1]: reverse the tactile allodynia | pain scores [2]: reduced pain scores | pain intensity associated with postherpetic neuralgia [3]: reduced pain intensity
